Assay [1] relates to T cells from the thymus of lck::eGFP transgenic zebrafish. In words: Screen for T cell ablation in lck::eGFP transgenic zebrafish larvae. Type of assay: in vivo. On the procedure:
FIG. 4 is a schematic of the experimental set-up of drug screen using DIVERSet small molecule library and lck-GFP transgenic zebrafish. Beginning at the top of the figure, three day 6 pf transgenic larvae are arrayed in 300 μL of E3 embryos water into each of the 96 wells of a round bottom tissue culture plate (except G1, H1, G12, H12). Controls are added in triplicate: DMSO (A1-C1), E3 (D1-F1), dexamethasone 25 μM (A12-C12), and methanol (D12-F12). Then, five compounds from the DIVERSet library are added to each well at a final concentration of 5 μM. Plates are incubated at […] for 48 hours, and are inspected by fluorescence microscopy at 24 and 48 hours. […] Compounds from wells identified as active are tested individually in triplicates. One of the five compounds that is active in all three wells is identified and is worked up further (left side).
To extend the versatility of the system, a transgenic line of zebrafish was generated; in this line all T cells are tagged with green fluorescent protein (GFP). GFP is driven by the T cell specific p56^lck promoter (Langenau et al., Proc Natl Acad Sci USA 101:7369-7374, 2004).
Based on the above observation that zebrafish T cells can be killed by the small molecule dexamethasone (MW 392) (Langenau et al., Proc Natl Acad Sci USA 101:7369-7374, 2004) a screen for novel compounds with a similar T cell ablative profile was performed. […]

The next assay concerns human T-ALL line Jurkat. In words: MTT cell viability, Jurkat. Type of assay: cell-based. As to conditions: 48 hours. The procedure:
FIG. 3 is a graph showing viability of human T-ALL lines incubated with individual compounds. Specifically, two human ALL lines (B-ALL: RS4; 11 and T-ALL: Jurkat) were incubated on day 0 with serum or with 2.5 μM of the indicated compounds (except for aphidicolin 1 μM and cyclosporine 1.5 μM). 48 hours later, cells were tested for viability by MTT test. Results from the mean of 3 to 4 experiments carried out in triplicate (individual dots) and the mean of all experiments (horizontal bar) are indicated. Results are shown for compounds without a cell cycle effect (B). Viability of untreated cells was arbitrarily set at 1.0.
Cell culture experiments: Cells were incubated at 37° C. in 75 mL flasks in RPMI containing 10% FBS, 5 mL Penicillin/Streptomycin (100×) in a total volume of […]. Cells were counted using a hemocytometer, and 25,000 cells were plated in each well of a 96-well plate. Compounds and controls were added and cells were harvested after a 48 hr incubation period.
To assess effects of compounds, cell viability was measured. […] After crystal solubilization with DMSO a blue color (that is proportional to the amount of crystal formed) can be measured. […] Final optical density (OD) obtained from formazan formation was calculated OD=L1-L2 (background). […]

The subject of assay [2] is cell cycle in zebrafish embryos. In words: Cell cycle profiles in zebrafish embryos (propidium iodide, flow cytometry). The assay is classed as in vivo. As to conditions: zebrafish embryos incubated from 4 hours post fertilization overnight, DNA content by flow cytometry. The procedure: FIG. 2 is a group of cell cycle profiles of active compounds tested in 24 hour zebrafish embryos. Specifically, embryos incubated with E3 fishwater (panel A), hydroxyurea (panel B), compound C4 (panel C), and compound C3 (panel D) are shown. After overnight incubation, single cell solution of embryos was prepared and incubated with propidium iodide. Samples were then subjected to flow cytometry to determine DNA content (X axis). Small arrowheads below the X-axis are placed beneath the diploid (G1) n=2 peak, and the tetraploid (G2/M) n=4 peaks. Cells between these two peaks are in S phase. Cells to the left of the G1 peak (sub G1 peak) have lost chromosomes (n<2), and are presumably dying (indicated as % debris in the right hand legend of each panel). Relative numbers of cells (Y-axis) in the different phases of the cell cycle are given on the right side of each panel.
All of these compounds were tested for effects on the cell cycle in zebrafish embryos. Zebrafish embryos were incubated at 4 hours post fertilization with compounds or controls. After overnight incubation in compounds, single cell solution of embryos was prepared and incubated with propidium iodide. Samples were then subjected to flow cytometry to determine DNA content. […] Examples are depicted in FIG. 2.
In FIG. 2, embryos incubated with (A) E3 fishwater, (B) hydroxyurea, (C) compound C4, and (D) C3 are shown. Diploid (G1, n=2) and tetraploid (G2/M, n=4) peaks are identified on the X-axis. Small arrowheads below the X-axis are placed beneath the dipoid (G1) n=2 peak, and the tetraploid (G2/M) n=4 peaks. Cells between these two peaks are in S phase. Cells to the left of the G1 peak (sub G1 peak) have lost chromosomes (n<2) and are presumably dying (indicated as % debris in the right hand legend of each panel). Relative numbers of cells (Y axis) in the different phases of the cell cycle are given on the right side of each panel.

The structures appear in SMILES notation. Entries after “also recorded” stand apart in the source; their conditions may differ.

In the case of `C(=NNc1cccc2cccnc12)c1c[nH]c2ccccc12` [Compound C3, 1H-indole-3-carbaldehyde quinolin-8-ylhydrazone], in assay [1], the “Activity in vivo (active concentration)” value was 3 µM. Moreover, in the assay on human T-ALL line Jurkat (2.5 μM, FIG. 3), the “Response of T cell leukemia line (viability, MTT)” value was “responded similarly”. Moreover, in the assay with human T-ALL line Jurkat (MTT), the “Effective concentration killing Jurkat in vitro” value is 2.5 µM. Also, the “Effect on the cell cycle” value is reported as “lack of cell cycle effects” in assay [2] and “did not have any appreciable effect on the cell cycle; also recorded: does not affect the cell cycle” in assay [2] (listed as 3).
